Assay results taken from patent publication US10975068B2, “6-aminopyridin-3-yl thiazoles as modulators of RORγT” (Janssen Pharmaceutica NV, priority 2016, dated 2021).
Read-outs that look alike come from different tables or passages of the source.

Assays:
[1] = biological target: human RORγt ligand binding domain (RORγt LBD) (Homo sapiens (Human), UniProt P51449); test: RORγt ThermoFluor® assay (thermal shift binding); conditions: read-out: ThermoFluor® Assay, Kd
In short: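 His-tagged human RORγt LBD (0.065 mg/mL) with 60 μM 1,8-ANS in 100 mM Hepes pH 7.0, 10 mM NaCl, 2.5 mM GSH, 0.002% Tween-20 was heated at 1 °C/min.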

full-length human RORγt = full-length human RORγt (Homo sapiens (Human), UniProt P51449); test: RORγt (full-length human) reporter assay, Conditions B or C; type: cell-based; conditions: for RORγt (FL) Reporter Assay B or C, % inhibition (value marked *): marked *: footnote not given; for inhibition at 3 µM: at 3 μM compound concentration, read-out: RORγt (FL) Reporter Assay B or C, % inhibition
In short: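 HEK293T cells transiently co-transfected with GAL4-DBD–full-length human RORγt (nt 142-1635, NM_001001523.1) plus GAL4-firefly and CMV-Renilla luciferase reporters; compounds added 4-6 h post-transfection for 16-20 h in 1.3% FBS, 0.1% DMSO. Firefly signal normalized to DMSO and saturating reference compound, then to Renilla; IC50 from concentration plots.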

[2] = Conditions B or C, read-out: RORγt (FL) Reporter Assay B or C, IC50
[3] = read-out: RORγt (FL) Reporter Assay B or C, IC50

Chain of full-length human RORγt (P51449 other isoform, or with tags, fused parts or gaps): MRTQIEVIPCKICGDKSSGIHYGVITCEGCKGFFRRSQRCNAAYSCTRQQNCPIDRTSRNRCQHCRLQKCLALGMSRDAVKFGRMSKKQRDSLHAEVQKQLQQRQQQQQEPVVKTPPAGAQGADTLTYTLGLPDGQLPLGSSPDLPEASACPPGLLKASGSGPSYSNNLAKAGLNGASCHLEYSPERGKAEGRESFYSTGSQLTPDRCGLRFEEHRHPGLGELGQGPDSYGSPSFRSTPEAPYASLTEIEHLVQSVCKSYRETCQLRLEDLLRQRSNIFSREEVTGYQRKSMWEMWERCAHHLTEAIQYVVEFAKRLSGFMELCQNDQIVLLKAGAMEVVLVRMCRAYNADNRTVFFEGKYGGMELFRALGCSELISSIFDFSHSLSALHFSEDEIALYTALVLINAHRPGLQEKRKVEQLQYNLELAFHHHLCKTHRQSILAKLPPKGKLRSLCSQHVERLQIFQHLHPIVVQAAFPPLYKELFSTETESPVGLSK
Chain of human RORγt ligand binding domain (RORγt LBD) (P51449 other isoform, or with tags, fused parts or gaps): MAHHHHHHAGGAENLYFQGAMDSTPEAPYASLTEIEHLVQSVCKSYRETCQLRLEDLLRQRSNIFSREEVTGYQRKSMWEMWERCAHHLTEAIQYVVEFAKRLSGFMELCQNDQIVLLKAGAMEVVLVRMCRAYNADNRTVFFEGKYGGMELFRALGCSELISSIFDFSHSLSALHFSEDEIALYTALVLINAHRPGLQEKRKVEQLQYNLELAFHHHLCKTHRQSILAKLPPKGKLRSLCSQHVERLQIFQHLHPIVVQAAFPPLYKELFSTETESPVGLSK

Structure (SMILES)	Kd [1] [nM]	RORγt (FL) Reporter Assay B or C, % inhibition (value marked *) (full-length human RORγt; Conditions B or C)	IC50 (full-length human RORγt; [2]) [µM]	inhibition at 3 µM (full-length human RORγt) [%]	IC50 (full-length human RORγt; [3]) [µM]	inhibition at 6 µM (full-length human RORγt; read-out: RORγt (FL) Reporter Assay B or C, % inhibition @ 6 μM, Conditions B or C, @ 6 μM) [%]	IC50 (full-length human RORγt; HEK293T cells, read-out: RORγt (FL) Reporter Assay B or C, IC50) [µM]	IC50 (full-length human RORγt; RORγt (FL) Reporter Assay B or C, IC50 (μM), Conditions B or C) [µM]
C[C@H]1CCCN1C(=O)c1nc(C(=O)NCC(C)(C)O)sc1-c1cnc(NC(C)(C)C2CC2)cc1C(F)(F)F [Example 56, (S)-5-(6-((2-Cyclopropylpropan-2-yl)amino)-4-(trifluoromethyl)pyridin-3-yl)-N-(2-hydroxy-2-methylpropyl)-4-(2-methylpyrrolidine-1-carbonyl)thiazole-2-carboxamide]	0.34	106* %	0.0036	–	–	–	–	–
C[C@H](Nc1cc(C(F)(F)F)c(-c2sc(C(=O)NCC3(O)CCC3)nc2C(=O)N2CCC[C@@H]2C)cn1)C1CC1 [Example 49, 5-(6-(((S)-1-Cyclopropylethyl)amino)-4-(trifluoromethyl)pyridin-3-yl)-N-((1-hydroxycyclobutyl)methyl)-4-((S)-2-methylpyrrolidine-1-carbonyl)thiazole-2-carboxamide]	3.3	99* %	0.0076	–	–	–	–	–
C[C@H](Nc1cc(C(F)F)c(-c2sc(C(=O)N[C@@H]3CCC[C@H]3O)nc2C(=O)N2C3CCC2CC3)cn1)C(F)(F)F [Example 224, 4-((1s,4s)-7-Azabicyclo[2.2.1]heptane-7-carbonyl)-5-(4-(difluoromethyl)-6-(((1S)-2,2,2-trifluoro-1-methyl-ethyl)amino)-3-pyridyl)-N-((1R,2R)-2-hydroxycyclopentyl)thiazole-2-carboxamide]	2.7	112* %	–	–	–	–	–	0.026
C[C@H]1CCCN1C(=O)c1nc(C(=O)N[C@H]2CC[C@H](O)C2)sc1-c1cnc(NC(C)(C)C)cc1C(F)F [Example 414, 5-[6-(tert-Butylamino)-4-(difluoromethyl)-3-pyridyl]-N-[(1S,3S)-3-hydroxycyclopentyl]-4-[(2S)-2-methylpyrrolidine-1-carbonyl]thiazole-2-carboxamide]	1.7	–	–	110	0.013	–	–	–
CC[C@H](Nc1cc(C(F)F)c(-c2sc(C(=O)N[C@H]3COC[C@@H]3O)nc2C(=O)N2C3CCC2CC3)cn1)C(F)(F)F [Example 209, 4-((1s,4s)-7-Azabicyclo[2.2.1]heptane-7-carbonyl)-5-(4-(difluoromethyl)-6-(((1S)-1-(trifluoromethyl)propyl)amino)-3-pyridyl)-N-((3S,4R)-4-hydroxytetrahydrofuran-3-yl]thiazole-2-carboxamide]	3.4	99* %	0.046	–	–	–	–	–
C[C@H]1CCCN1C(=O)c1nc(C(=O)NCC(C)(C)O)sc1-c1cnc(N[C@@H]2CCCCC2(F)F)cc1C(F)(F)F (relative stereo) [Example 35, 5-(6-(((R*)-2,2-Difluorocyclohexyl)amino)-4-(trifluoromethyl)pyridin-3-yl)-N-(2-hydroxy-2-methylpropyl)-4-((S)-2-methylpyrrolidine-1-carbonyl)thiazole-2-carboxamide]	3.9	–	0.02	–	–	114	–	–
C[C@H](Nc1cc(C(F)F)c(-c2sc(C(=O)N[C@@H]3CC[C@H]3O)nc2C(=O)N2C3CCC2CC3)cn1)C(F)(F)F (relative stereo) [Example 291, 4-((1s,4s)-7-Azabicyclo[2.2.1]heptane-7-carbonyl)-5-(4-(difluoromethyl)-6-(((S)-1,1,1-trifluoropropan-2-yl)amino)pyridin-3-yl)-N-((1R*,2R*)-2-hydroxycyclobutyl)thiazole-2-carboxamide]	6.9	–	–	113	0.12	–	–	–
CC[C@H](Nc1cc(C(F)F)c(-c2sc(C(=O)N3CC4(COC4)C3)nc2C(=O)N2CCC[C@@H]2C)cn1)C(F)(F)F [Example 384, [5-[4-(Difluoromethyl)-6-[[(1S)-1-(trifluoromethyl)propyl]amino]-3-pyridyl]-2-(6-oxa-2-azaspiro[3.3]heptane-2-carbonyl)thiazol-4-yl]-[(2S)-2-methylpyrrolidin-1-yl]methanone]	5	–	–	98	0.07	–	–	–
CC(C)(O)CNC(=O)c1nc(C(=O)N2C3CCC2CC3)c(-c2cnc(NC3CCCC3)cc2C(F)F)s1 [Example 46, 4-((1s,4s)-7-Azabicyclo[2.2.1]heptane-7-carbonyl)-5-(6-(cyclopentylamino)-4-(difluoromethyl)pyridin-3-yl)-N-(2-hydroxy-2-methylpropyl)thiazole-2-carboxamide]	4.2	100* %	0.029	–	–	–	–	–
C[C@H]1CCCN1C(=O)c1nc(C(=O)N[C@H]2C[C@@H](O)C2)sc1-c1cnc(NC(C)(C)C)cc1C(F)(F)F [Example 251, 5-[6-(tert-Butylamino)-4-(trifluoromethyl)-3-pyridyl]-N-((1s,3R)-3-hydroxycyclobutyl)-4-[(2S)-2-methylpyrrolidine-1-carbonyl]thiazole-2-carboxamide]	21	–	–	104	0.072	–	–	–
C[C@H]1CC(F)(F)CN1C(=O)c1nc(C(=O)N[C@H](C)C(C)(C)O)sc1-c1cnc(NC2(C)CCC2)cc1C(F)(F)F [Example 196, 4-((S)-4,4-Difluoro-2-methylpyrrolidine-1-carbonyl)-N—((R)-3-hydroxy-3-methylbutan-2-yl)-5-(6-((1-methhylcyclobutyl)amino)-4-(trifluoromethyl)pyridine-3-yl)thiazole-2-carboxamide]	0.64	109* %	0.027	–	–	–	–	–

The remaining compounds from weak to strong by Kd [1], led by results:

Kd [1] [nM]	RORγt (FL) Reporter Assay B or C, % inhibition (value marked *) (full-length human RORγt; Conditions B or C)	IC50 (full-length human RORγt; [2]) [µM]	inhibition at 3 µM (full-length human RORγt) [%]	IC50 (full-length human RORγt; [3]) [µM]	inhibition at 6 µM (full-length human RORγt; read-out: RORγt (FL) Reporter Assay B or C, % inhibition @ 6 μM, Conditions B or C, @ 6 μM) [%]	IC50 (full-length human RORγt; HEK293T cells, read-out: RORγt (FL) Reporter Assay B or C, IC50) [µM]	Structure (SMILES)	IC50 (full-length human RORγt; RORγt (FL) Reporter Assay B or C, IC50 (μM), Conditions B or C) [µM]
3000	–	–	–	–	–	> 6	C[C@H]1CCCN1C(=O)c1nc(C(=O)NCC(C)(C)O)sc1-c1ccnc(NC2CCCCC2)c1C#N [Comparator Example 1, (S)-5-(3-Cyano-2-(cyclohexylamino)pyridin-4-yl)-N-(2-hydroxy-2-methylpropyl)-4-(2-methylpyrrolidine-1-carbonyl)thiazole-2-carboxamide, reference compound]	–
73	101* %	0.032	–	–	–	–	C[C@H]1CCCN1C(=O)c1nc(C(=O)N[C@H]2C[C@H](O)C2)sc1-c1cnc(NC2CCCC2)cc1C(F)F [Example 74, 5-(6-(Cyclopentylamino)-4-(difluoromethyl)pyridin-3-yl)-N-((1r,3s)-3-hydroxycyclobutyl)-4-((S)-2-methylpyrrolidine-1-carbonyl)thiazole-2-carboxamide]	–
29	–	–	118	0.027	–	–	CC[C@H](Nc1cc(C(F)F)c(-c2sc(C(=O)N3CC(S(C)(=O)=O)C3)nc2C(=O)N2CCC[C@@H]2C)cn1)C(F)(F)F [Example 393, [5-[4-(Difluoromethyl)-6-[[(1S)-1-(trifluoromethyl)propyl]amino]-3-pyridyl]-2-(3-methylsulfonylazetidine-1-carbonyl)thiazol-4-yl]-[(28)-2-methylpyrrolidin-1-yl]methanone]	–
2.4	–	–	109	0.11	–	–	C[C@H]1CCCN1C(=O)c1nc(C(=O)N2CC(C)(O)C2)sc1-c1cnc(NC(C)(C)C)cc1C(F)(F)F [Example 268, [5-[6-(tert-Butylamino)-4-(trifluoromethyl)-3-pyridyl]-2-(3-hydroxy-3-methyl-azetidine-1-carbonyl)thiazol-4-yl]-[(2S)-2-methylpyrrolidin-1-yl]methanone]	–
1.9	–	–	106	0.054	–	–	C[C@H](Nc1cc(C(F)F)c(-c2sc(C(=O)N[C@@H]3CCC[C@H]3O)nc2C(=O)N2CCC[C@@H]2C)cn1)C(F)(F)F [Example 283, 5-(4-(Difluoromethyl)-6-(((S)-1,1,1-trifluoropropan-2-yl)amino)pyridin-3-yl)-N-((1R,2R)-2-hydroxycyclopentyl)-4-((S)-2-methylpyrrolidine-1-carbonyl)thiazole-2-carboxamide]	–
0.97	117* %	0.0066	–	–	–	–	C[C@H]1CC(F)(F)CN1C(=O)c1nc(C(=O)NCC(C)(C)O)sc1-c1cnc(NC(C2CC2)C2CC2)cc1C(F)F [Example 177, (S)-5-(6-((Dicyclopropylmethyl)amino)-4-(difluoromethyl)pyridine-3-yl)-4-(4,4-difluoro-2-methylpyrrolidine-1-carbonyl)-N-(2-hydroxy-2-methylpropyl)thiazole-2-carboxamide]	–
0.9	–	–	105	0.0031	–	–	C[C@H]1CCCN1C(=O)c1nc(C(=O)N[C@H]2COC[C@@H]2O)sc1-c1cnc(NC(C)(C)C)cc1C(F)(F)F [Example 348, 5-[6-(tert-Butylamino)-4-(trifluoromethyl)-3-pyridyl]-N-[(3S,4R)-4-hydroxytetrahydrofuran-3-yl]-4-[(2S)-2-methylpyrrolidine-1-carbonyl]thiazole-2-carboxamide]	–
0.61	102* %	0.016	–	–	–	–	C[C@H](Nc1cc(C(F)(F)F)c(-c2sc(C(=O)N[C@@H]3CCC[C@@H]3O)nc2C(=O)N2CC(F)(F)C[C@@H]2C)cn1)C1CC1 [Example 201, 5-(6-(((S)-1-Cyclopropylethyl)amino)-4-(trifluoromethyl)pyridine-3-yl)-4-((S)-4,4-difluoro-2-methylpyrrolidine-1-carbonyl)-N-((1R,2S)-2-hydroxycyclopentyl)thiazole-2-carboxamide]	–
